For orientation: IC50 means the concentration that inhibits the measured activity by half.

IC50 data for 7 compounds are collected here from patent publication US9447114B2, “Thieno- and furo[2,3-d]pyrimidine-2,4[1H,3H]-dione derivatives” (Hydra Biosciences, Inc., priority 2014, dated 2016).

Experiment [1] deals with T1, TRPC5 channel (Homo sapiens (Human), UniProt Q9UL62). Kind of experiment: High throughput screening assay: intracellular Ca2+ rise, Fluo4 cell-based fluorescence. The conditions noted are these: HEK293/TREx cells inducibly expressing TRPC5, high-Ca2+ Ringer, 14 mM Ca2+ final, triplicate, 0.027-20 μM. An excerpt: The assay depended on detection of the rise in intracellular Ca2+ concentration ([Ca2+]i) following channel activation in cells inducibly expressing the TRPC5 channel. Ca2+ rise was quantified with the use of fluorescent Ca2+ indicators that were loaded into cells and thereafter indicated the [Ca2+]i Ca2+ influx followed activation of the TRPC5 channel. Compounds inhibiting the [Ca2+]i rise were considered hits for further investigation.
The commercially available HEK293/TREx line (Invitrogen) was stably transfected with a TRPC5 construct and screened by conventional calcium imaging to find clones with TRPC5 expression following stimulation with 1 μg/ml tetracycline. These cells were maintained in the growth medium recommended by the manufacturer supplemented with 100 μg/ml hygromycin to promote retention of the TRPC5 construct. After growing to near confluency, cells were plated at a density of ˜35,000 cells/well in 384 well CellBind plates (Corning) in the presence of 1 μg/ml tetracycline, and allowed to grow for 20-30 hrs. A nearly confluent monolayer resulted. Cells were then loaded with Ca2+ dye: Fura-2/AM or Fluo4/AM was added to the wells to a final concentration of 4 μM or 0.5 μM, respectively, and incubated for 80 min or 60 min, respectively, at room temperature. Supernatant was then removed from the cells by inverting plates with a sharp flick, and 25 μl Hank's Balanced Salt Solution (HBSS; 0.185 g/l D-glucose, 0.9767 g/l MgS04 (anhydrous), 0.4 g/l KCl, 0.06 g/l KH2PO4 (anhydrous), 0.35 g/l NaHCO3, 8.0 g/l NaCl, and 0.04788 g/l Na2HPO4 (anhydrous); pH 7.4) was then added to each well. Following ˜0.5 hour for recovery from loading, cells were assayed using the Hamamatsu FDSS 6000 system, which permitted illumination alternately at 340 nm and 380 nm for Fura-2 experiments, or at 485 nm for Fluo4 experiments. Frames were acquired at a rate of 0.2 Hz. During the assay, the plates were continuously vortexed, with pipette mixing of wells following addition of each reagent. For the screening assay, 26 μl of a diluted compound stock (at 50 μM) was added to each well for 2 minutes following the collection of a short (4 frame) baseline. 13 μl 62 mM high-Ca2+Ringer solution (4.17 ml of normal ringer (with 2 mM Ca2+) plus 5.83 ml of isotonic calcium ringer (105 mM Ca2+; in this ringer all sodium has been replaced with calcium)) was then added to each well, achieving a final concentration of 14 mM Ca2+ and 10 μM test compound. Data was collected for ˜3 minutes following addition of high Ca2+Ringer, where the fluorescent intensity (for Fluo4) and the F340/F380 ratio (for Fura-2) were proportional to the [Ca2+]i Negative controls consisted of HEK293/TREx TRPC5 cells exposed to high Ca2+ solution, but no compound. Positive control conditions consisted of addition of 2-APB, a promiscuous blocker of TRPC5 and other channels, to columns 23 and 24 of the plates, to a final concentration of 200 μM. These controls defined a screening window, and “hits” were defined as those compounds inhibiting the fluorescence response by at least 40%. IC50 values were determined for compounds defined as “hits.” The Fluo4 cell-based fluorescence assay was used to determine the intracellular Ca2+ concentration in the presence of varying drug concentration. Final concentrations of compounds tested were 20 μM, 6.667 μM, 2.222 μM, 0.741 μM, 0.247 μM, 0.082 μM, and 0.027 μM. Compounds were tested in triplicate at all concentrations. Standard software was used to fit IC50 curves.
Additionally or alternatively, efficacy can be represented as % inhibition in the presence (of a given concentration of compound) versus the absence of compound or in comparison to a control compound. For example, efficacy can be represented as % inhibition of ion flux in the presence versus the absence of compound.

Experiment [2] concerns the target T1, TRPC5 channel. Kind of experiment: Whole-cell patch clamp of TRPC5 current. It counts as cell-based. The conditions noted are these: TRPC5-expressing HEK293 TREx cells, current activated by 80 μM LaCl3 and 1.4 μM free Ca2+ in pipette, IC50 estimated. An excerpt:
Patch clamp experiments permit the detection of currents through the TRPC5 channel in the cell line described above. In normal whole-cell patch clamp recordings, a glass electrode is brought into contact with a single cell and a high-resistance (gigaohm) seal is established with the cell membrane. The membrane is then ruptured to achieve the whole-cell configuration, permitting control of the voltage of the cell membrane and measurement of currents flowing across the membrane using the amplifier attached to the electrode and resulting in the replacement of cytoplasm with the pipette solution. A perfusion system permits control of the extracellular solution, including the addition of blockers and activators of the current. The current can be activated by including 1.4 μM free Ca^2+ in the pipette (intracellular) solution, and 80 μM LaCl3 in the extracellular solution.
TRPC5 cells were induced 20-48 hours, removed from growth plates, and replated at low density (to attain good single-cell physical separation) on glass coverslips for measurement. In some cases, cells were grown in low density overnight on glass coverslips. Patch clamp recordings were made in the whole-cell mode with a holding potential of −40 mV. Every 5 seconds, a voltage ramp was applied from −120 to +100 mV, 400 ms in duration. Currents elicited were quantified at −80 mV and +80 mV. The internal solution consisted of 140 mM cesium aspartate, 10 mM HEDTA, 2 mM CaCl2, 2.27 mM MgCl2 and 10 mM HEPES, pH 7.2, with 1,400 nM calculated free Ca^2+. The external solution consisted of 150 mM NaCl, 4.5 mM KCl, 1 mM MgCl2, 2 mM CaCl2 10 mM HEPES, 10 mM glucose, 1 mM EGTA, pH 7.4. Upon addition of LaCl3, TRPC5 current was induced only in TRPC5-expressing cells and not in parental HEK293 TREx cells. Removal of the LaCl3 stimulus causes most of the current to go away. Potential blockers were tested for ability to block both inward and outward currents in the continued presence of LaCl3.
IC50 of a compound of Formula (I) was estimated by testing the compound at 5 μM and 500 nM. […] IC50 for a compound of Formula (I) between 500 nM and 5 μM was similarly estimated.

T1 sequence (Q9UL62 whole entry): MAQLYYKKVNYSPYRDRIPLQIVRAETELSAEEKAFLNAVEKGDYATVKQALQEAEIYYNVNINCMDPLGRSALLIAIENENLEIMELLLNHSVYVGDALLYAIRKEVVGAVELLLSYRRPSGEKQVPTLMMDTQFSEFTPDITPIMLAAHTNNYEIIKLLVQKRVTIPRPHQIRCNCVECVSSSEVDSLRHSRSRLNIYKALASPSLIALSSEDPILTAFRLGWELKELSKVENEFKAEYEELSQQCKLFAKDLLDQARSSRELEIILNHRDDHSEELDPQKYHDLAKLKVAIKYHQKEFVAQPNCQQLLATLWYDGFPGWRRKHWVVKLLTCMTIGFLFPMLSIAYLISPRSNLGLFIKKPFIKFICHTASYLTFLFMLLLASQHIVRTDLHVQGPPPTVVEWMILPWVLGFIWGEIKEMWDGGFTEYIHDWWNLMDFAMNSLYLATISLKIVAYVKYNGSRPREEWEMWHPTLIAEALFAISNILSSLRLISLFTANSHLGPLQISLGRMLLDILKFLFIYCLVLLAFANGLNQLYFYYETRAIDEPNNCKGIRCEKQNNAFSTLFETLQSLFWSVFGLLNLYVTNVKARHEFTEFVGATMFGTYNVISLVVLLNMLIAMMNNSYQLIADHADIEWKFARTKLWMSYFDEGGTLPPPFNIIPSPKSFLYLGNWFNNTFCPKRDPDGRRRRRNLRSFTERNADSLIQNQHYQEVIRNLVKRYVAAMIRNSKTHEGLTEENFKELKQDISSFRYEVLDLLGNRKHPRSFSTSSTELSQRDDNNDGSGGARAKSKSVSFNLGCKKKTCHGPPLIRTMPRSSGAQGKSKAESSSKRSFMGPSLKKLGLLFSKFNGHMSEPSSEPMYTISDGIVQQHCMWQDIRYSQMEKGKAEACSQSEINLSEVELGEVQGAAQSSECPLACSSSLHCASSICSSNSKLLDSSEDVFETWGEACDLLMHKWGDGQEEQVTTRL

Consider `Cn1c(=O)n(CCCO)c(=O)c2c(Cc3ccc(Cl)cc3)c(Oc3cccc(OC(F)(F)F)c3)sc21` [Compound 1, 5-(4-chlorobenzyl)-3-(3-hydroxypropyl)-1-methyl-6-(3-(trifluoromethoxy)phenoxy)thieno[2,3-d]pyrimidine-2,4(1H,3H)-dione], for which the results for the half-maximal inhibitory concentration (IC50) at TRPC5 channel [1] and at TRPC5 channel [2] were 0.584 µM and below 0.001 µM, respectively.
On the same counts, the results for `Cn1c(=O)n(CCCO)c(=O)c2c(Cc3ccc(Cl)cc3)c(Oc3cccc(Cl)c3)sc21` [Compound 2, 5-(4-chlorobenzyl)-6-(3-chlorophenoxy)-3-(3-hydroxypropyl)-1-methylthieno[2,3-d]pyrimidine-2,4(1H,3H)-dione] are 0.117 µM and below 0.001 µM.
The matching figures for `Cn1c(=O)n(CCCO)c(=O)c2c(Cc3ccc(Cl)cc3)c(-c3ccc(Cl)cc3)sc21` [Compound 24, 5-(4-chlorobenzyl)-6-(4-chlorophenyl)-3-(3-hydroxypropyl)-1-methylthieno[2,3-d]pyrimidine-2,4(1H,3H)-dione]: 0.242 µM and 0.00184 µM.
As for `Cc1c(-c2ccc(Cl)cc2)sc2c1c(=O)n(CCCO)c(=O)n2C` [Compound 25, 6-(4-chlorophenyl)-3-(3-hydroxypropyl)-1,5-dimethylthieno[2,3-d]pyrimidine-2,4(1H,3H)-dione], the IC50 on TRPC5 channel [1] is 0.168 µM; at TRPC5 channel [2] it was 0.0157 µM.
On the same counts, the results for `Cn1c(=O)n(CCCO)c(=O)c2c(Cc3ccc(Cl)cc3)c(-c3cccc(OC(F)(F)F)c3)sc21` [Compound 26, 5-(4-chlorobenzyl)-3-(3-hydroxypropyl)-1-methyl-6-(3-(trifluoromethoxy)phenyl)thieno[2,3-d]pyrimidine-2,4(1H,3H)-dione] are 0.00191 µM and below 0.001 µM.
The matching figures for `Cn1c(=O)n(CCCO)c(=O)c2c(Cc3ccc(Cl)cc3)c(-c3cccc(Cl)c3)oc21` [Compound 27, 5-(4-chlorobenzyl)-6-(3-chlorophenyl)-3-(3-hydroxypropyl)-1-methylfuro[2,3-d]pyrimidine-2,4(1H,3H)-dione]: 0.134 µM and below 0.001 µM.
Consider `O=c1c2c(Cc3ccc(Cl)cc3)c(-c3cccc(Cl)c3)oc2n(CCCO)c(=O)n1CCCO` [Compound 28, 5-(4-chlorobenzyl)-6-(3-chlorophenyl)-1,3-bis(3-hydroxypropyl)furo[2,3-d]pyrimidine-2,4(1H,3H)-dione], for which half-maximal inhibition on TRPC5 channel [1] (IC50) required 4.33 µM.
